According to patent publication US10669261B2, “Heteroarylhydroxypyrimidinones as agonists of the APJ receptor” (BRISTOL-MYERS SQUIBB COMPANY, priority 2015, dated 2020):
Like-named read-outs stand apart in the source and are kept apart here.

Target: T1, human APJ receptor (Homo sapiens, UniProt P35414)
T1 construct: expressed in transfected cells
T1 sequence (P35414 1-380): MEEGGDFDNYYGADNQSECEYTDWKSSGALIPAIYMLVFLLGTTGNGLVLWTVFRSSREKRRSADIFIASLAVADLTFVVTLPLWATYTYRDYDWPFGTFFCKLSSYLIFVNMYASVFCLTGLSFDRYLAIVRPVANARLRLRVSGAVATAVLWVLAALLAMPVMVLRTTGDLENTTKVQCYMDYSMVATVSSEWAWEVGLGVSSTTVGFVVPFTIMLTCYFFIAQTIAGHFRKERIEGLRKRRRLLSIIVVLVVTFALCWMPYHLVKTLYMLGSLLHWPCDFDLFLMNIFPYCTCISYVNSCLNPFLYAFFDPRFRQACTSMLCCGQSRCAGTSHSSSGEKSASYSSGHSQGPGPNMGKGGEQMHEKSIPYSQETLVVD
Test: Intracellular cAMP accumulation assay (APJ hcAMP, HTRF)
Type: cell-based
Settings: HEK293 cells stably expressing human APJ receptor
Outline: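 Inhibition of forskolin (2 μM)-driven cAMP, with […], measured by HTRF after 30 min room-temperature compound exposure of stably transfected HEK293 cells. cAMP read from a standard curve; variable-slope fit gives EC50, and maximal inhibition is normalised to (Pyr1)apelin-13 as 100%.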

[1] = Table 1, read-out: hAPJ cAMP EC50 Potency range
[2] = Table 2, read-out: hAPJ cAMP EC50 Potency range

Row | EC50 [2] | Structure (SMILES) | also measured
1 |  | COc1cccc(OC)c1-n1c(C2CCC2)nc(=O)c(-c2nnc(CN3CCCC3=O)o2)c1O [Example 72, 2-cyclobutyl-1-(2,6-dimethoxyphenyl)-6-hydroxy-5-{5-[(2-oxopyrrolidin-1-yl)methyl]-1,3,4-oxadiazol-2-yl}-1,4-dihydropyrimidin-4-one] | EC50 [1]: 0.01 to 10 nM
2 |  | COc1cccc(OC)c1-n1c(C2CCC2)nc(=O)c(-c2nnc(Cc3csc(C)n3)o2)c1O [Example 73, 2-cyclobutyl-1-(2,6-dimethoxyphenyl)-6-hydroxy-5-{5-[(2-methyl-1,3-thiazol-4-yl)methyl]-1,3,4-oxadiazol-2-yl}-1,4-dihydropyrimidin-4-one] | EC50 [1]: 0.01 to 10 nM
3 |  | CCCCc1nc(O)c(-c2nnc(Cc3noc4ccccc34)o2)c(=O)n1[C@@H](CC)c1ccccc1 [Example 74, (S)-5-(5-(Benzo[d]isoxazol-3-ylmethyl)-1,3,4-oxadiazol-2-yl)-2-butyl-6-hydroxy-3-(1-phenylpropyl)pyrimidin-4(3H)-one] | EC50 (inhibition of forskolin-mediated cAMP production, stated at end of example, read-out: Human APJ cAMP Potency Range): 0.01 to 10 nM
4 | 10 to 100 nM | CCCCc1nc(O)c(-c2nnc(Cc3noc4ccccc34)o2)c(=O)n1[C@@H](C)c1ccccc1 [Example 75, 5-{5-[(1,2-benzoxazol-3-yl)methyl]-1,3,4-oxadiazol-2-yl}-2-butyl-6-hydroxy-3-[(1S)-1-phenylethyl]-3,4-dihydropyrimidin-4-one] | 
5 | 0.01 to 10 nM | CCCCc1nc(O)c(-c2nnc(Cc3csc(C)n3)o2)c(=O)n1[C@@H](C)c1ccccc1 [Example 76, 2-butyl-6-hydroxy-5-{5-[(2-methyl-1,3-thiazol-4-yl)methyl]-1,3,4-oxadiazol-2-yl}-3-[(1S)-1-phenylethyl]-3,4-dihydropyrimidin-4-one] | 
6 | 100 to 300 nM | CCCCc1nc(O)c(-c2nnc(Cc3ccc(Cl)cc3)o2)c(=O)n1[C@@H](C)C1CC1 [Example 77, 2-butyl-5-{5-[(4-chlorophenyl)methyl]-1,3,4-oxadiazol-2-yl}-3-[(1S)-1-cyclopropylethyl]-6-hydroxy-3,4-dihydropyrimidin-4-one] | 
7 | 10 to 100 nM | CCCCc1nc(O)c(-c2nnc(Cc3noc4ccccc34)o2)c(=O)n1[C@H](C)c1ccccc1OC [Example 78, 5-{5-[(1,2-benzoxazol-3-yl)methyl]-1,3,4-oxadiazol-2-yl}-2-butyl-6-hydroxy-3-[(1R)-1-(2-methoxyphenyl)ethyl]-3,4-dihydropyrimidin-4-one] | 
8 | 0.01 to 10 nM | CCCCc1nc(O)c(-c2nnc(Cc3csc(C)n3)o2)c(=O)n1[C@H](C)c1ccccc1OC [Example 79, 2-butyl-6-hydroxy-3-[(1R)-1-(2-methoxyphenyl)ethyl]-5-{5-[(2-methyl-1,3-thiazol-4-yl)methyl]-1,3,4-oxadiazol-2-yl}-3,4-dihydropyrimidin-4-one] | 
9 | 100 to 300 nM | CCCCc1nc(O)c(-c2nnc(Cc3csc(C)n3)o2)c(=O)n1[C@H](C)C1CC1 [Example 80, 2-butyl-3-[(1R)-1-cyclopropylethyl]-6-hydroxy-5-{5-[(2-methyl-1,3-thiazol-4-yl)methyl]-1,3,4-oxadiazol-2-yl}-3,4-dihydropyrimidin-4-one] | 
10 | 10 to 100 nM | CCCCc1nc(O)c(-c2nnc(Cc3ccc(Cl)cc3)o2)c(=O)n1[C@H](C)c1ccccc1OC [Example 81, 2-butyl-5-{5-[(4-chlorophenyl)methyl]-1,3,4-oxadiazol-2-yl}-6-hydroxy-3-[(1R)-1-(2-methoxyphenyl)ethyl]-3,4-dihydropyrimidin-4-one] | 
11 | 10 to 100 nM | CCCCc1nc(O)c(-c2nnc(Cc3csc(C)n3)o2)c(=O)n1[C@H](C)c1ccccc1 [Example 82, 2-butyl-6-hydroxy-5-{5-[(2-methyl-1,3-thiazol-4-yl)methyl]-1,3,4-oxadiazol-2-yl}-3-[(1R)-1-phenylethyl]-3,4-dihydropyrimidin-4-one] | 
12 | 10 to 100 nM | CCCCc1nc(O)c(-c2nnc(Cc3ccc(Cl)cc3)o2)c(=O)n1[C@H](C)c1ccccc1 [Example 83, 2-butyl-5-{5-[(4-chlorophenyl)methyl]-1,3,4-oxadiazol-2-yl}-6-hydroxy-3-[(1R)-1-phenylethyl]-3,4-dihydropyrimidin-4-one] | 
13 | 10 to 100 nM | CCCCc1nc(O)c(-c2nnc(Cc3ccc(Cl)cc3)o2)c(=O)n1[C@@H](CC)c1ccccc1 [Example 84, 2-butyl-5-{5-[(4-chlorophenyl)methyl]-1,3,4-oxadiazol-2-yl}-6-hydroxy-3-[(1S)-1-phenylpropyl]-3,4-dihydropyrimidin-4-one] | 
14 | 0.01 to 10 nM | CCCCc1nc(O)c(-c2nnc(Cc3csc(C)n3)o2)c(=O)n1[C@@H](CC)c1ccccc1 [Example 85, 2-butyl-6-hydroxy-5-{5-[(2-methyl-1,3-thiazol-4-yl)methyl]-1,3,4-oxadiazol-2-yl}-3-[(1S)-1-phenylpropyl]-3,4-dihydropyrimidin-4-one] | 
15 | 0.01 to 10 nM | CCCCc1nc(O)c(-c2nnc(Cc3noc4ccccc34)o2)c(=O)n1[C@H](C)c1ccccc1 [Example 86, 5-{5-[(1,2-benzoxazol-3-yl)methyl]-1,3,4-oxadiazol-2-yl}-2-butyl-6-hydroxy-3-[(1R)-1-phenylethyl]-3,4-dihydropyrimidin-4-one] | 
16 | 0.01 to 10 nM | CCCCc1nc(O)c(-c2nnc(Cc3noc4ccccc34)o2)c(=O)n1[C@H](CC)c1ccccc1 [Example 87, 5-{5-[(1,2-benzoxazol-3-yl)methyl]-1,3,4-oxadiazol-2-yl}-2-butyl-6-hydroxy-3-[(1R)-1-phenylpropyl]-3,4-dihydropyrimidin-4-one] | 
17 | 0.01 to 10 nM | CCCCc1nc(O)c(-c2nnc(Cc3csc(C)n3)o2)c(=O)n1[C@H](CC)c1ccccc1 [Example 88] | 
18 | 10 to 100 nM | CCCCc1nc(O)c(-c2nnc(Cc3ccc(Cl)cc3)o2)c(=O)n1[C@H](CC)c1ccccc1 [Example 89, 2-butyl-5-{5-[(4-chlorophenyl)methyl]-1,3,4-oxadiazol-2-yl}-6-hydroxy-3-[(1R)-1-phenylpropyl]-3,4-dihydropyrimidin-4-one] | 
19 | 100 to 300 nM | CCCCc1nc(O)c(-c2nnc(Cc3noc4ccccc34)o2)c(=O)n1[C@H](COC)c1ccccc1 [Example 90, 5-{5-[(1,2-benzoxazol-3-yl)methyl]-1,3,4-oxadiazol-2-yl}-2-butyl-6-hydroxy-3-[(1S)-2-methoxy-1-phenylethyl]-3,4-dihydropyrimidin-4-one] | 
20 | 10 to 100 nM | CCCCc1nc(O)c(-c2nnc(Cc3noc4ccccc34)o2)c(=O)n1[C@@H](COC)c1ccccc1 [Example 91, 5-{5-[(1,2-benzoxazol-3-yl)methyl]-1,3,4-oxadiazol-2-yl}-2-butyl-6-hydroxy-3-[(1R)-2-methoxy-1-phenylethyl]-3,4-dihydropyrimidin-4-one] | 
21 | 100 to 300 nM | CCCCc1nc(O)c(-c2nnc(Cc3noc4ccccc34)o2)c(=O)n1[C@H]1CCCc2ccccc21 [Example 92, 5-{5-[(1,2-benzoxazol-3-yl)methyl]-1,3,4-oxadiazol-2-yl}-2-butyl-6-hydroxy-3-[(1S)-1,2,3,4-tetrahydronaphthalen-1-yl]-3,4-dihydropyrimidin-4-one] | 
22 | 100 to 300 nM | CCCCc1nc(O)c(-c2nnc(Cc3csc(C)n3)o2)c(=O)n1[C@H](COC)c1ccccc1 [Example 93, 2-butyl-6-hydroxy-3-[(1S)-2-methoxy-1-phenylethyl]-5-{5-[(2-methyl-1,3-thiazol-4-yl)methyl]-1,3,4-oxadiazol-2-yl}-3,4-dihydropyrimidin-4-one] | 
23 | 0.01 to 10 nM | CCCCc1nc(O)c(-c2nnc(Cc3csc(C)n3)o2)c(=O)n1[C@@H](COC)c1ccccc1 [Example 94, 2-butyl-6-hydroxy-3-[(1R)-2-methoxy-1-phenylethyl]-5-{5-[(2-methyl-1,3-thiazol-4-yl)methyl]-1,3,4-oxadiazol-2-yl}-3,4-dihydropyrimidin-4-one] | 
24 | 10 to 100 nM | CCCCc1nc(O)c(-c2nnc(Cc3csc(C)n3)o2)c(=O)n1[C@@H](C)c1ccc(F)cc1 [Example 95, 2-butyl-3-[(1S)-1-(4-fluorophenyl)ethyl]-6-hydroxy-5-{5-[(2-methyl-1,3-thiazol-4-yl)methyl]-1,3,4-oxadiazol-2-yl}-3,4-dihydropyrimidin-4-one] | 
25 | 10 to 100 nM | CCCCc1nc(O)c(-c2nnc(Cc3noc4ccccc34)o2)c(=O)n1[C@H]1CCc2ccccc21 [Example 96, 5-{5-[(1,2-benzoxazol-3-yl)methyl]-1,3,4-oxadiazol-2-yl}-2-butyl-3-[(1S)-2,3-dihydro-1H-inden-1-yl]-6-hydroxy-3,4-dihydropyrimidin-4-one] | 
26 | 0.01 to 10 nM | CCCCc1nc(O)c(-c2nnc(Cc3csc(C)n3)o2)c(=O)n1[C@H]1CCc2ccccc21 [Example 97, 2-butyl-3-[(1S)-2,3-dihydro-1H-inden-1-yl]-6-hydroxy-5-{5-[(2-methyl-1,3-thiazol-4-yl)methyl]-1,3,4-oxadiazol-2-yl}-3,4-dihydropyrimidin-4-one] | 
27 | 0.01 to 10 nM | CCCCc1nc(O)c(-c2nnc(Cc3ccc(Cl)cn3)o2)c(=O)n1[C@@H](C)c1ccc(F)cc1 [Example 98, 2-butyl-5-{5-[(5-chloropyridin-2-yl)methyl]-1,3,4-oxadiazol-2-yl}-3-[(1S)-1-(4-fluorophenyl)ethyl]-6-hydroxy-3,4-dihydropyrimidin-4-one] | 
28 | 10 to 100 nM | CCCCc1nc(O)c(-c2nnc(Cc3ccc(Cl)cn3)o2)c(=O)n1[C@H](COC)c1ccccc1 [Example 99] | 
